Results reported in patent publication US20070129403A1, “METHOD OF TREATING SCHIZOPHRENIA AND/OR GLUCOREGULATORY ABNORMALITIES” (AVENTIS PHARMACEUTICALS INC., priority 2004, published 2007).
“And” between values parts separate entries of the source, which are not always exact repeats. Identical values can stand only once.

Legend:
[1] = tested on: release of norepinephrine, acetylcholine and serotonin; conditions: dependence on added calcium; Smith et al, 1993; 1996; cited from earlier work
[2] = target: T1, voltage-gated potassium channels in hamster HIT-T15 insulinoma cells (Mesocricetus auratus, UniProt A0A3Q0CYQ2); assay: Whole-cell patch clamp, voltage-gated potassium currents in HIT-T15 insulinoma cells; assay type: cell-based, Syrian Hamster; conditions: for Voltage-Gated Potassium Current (% Control), Average: average of cells; for Voltage-Gated Potassium Current (% Control), single cells: individual cells #1-#5
T1 construct: endogenous in cells; host or cells: HIT-T15 (Syrian hamster insulinoma)
T1 sequence (A0A3Q0CYQ2 1-857): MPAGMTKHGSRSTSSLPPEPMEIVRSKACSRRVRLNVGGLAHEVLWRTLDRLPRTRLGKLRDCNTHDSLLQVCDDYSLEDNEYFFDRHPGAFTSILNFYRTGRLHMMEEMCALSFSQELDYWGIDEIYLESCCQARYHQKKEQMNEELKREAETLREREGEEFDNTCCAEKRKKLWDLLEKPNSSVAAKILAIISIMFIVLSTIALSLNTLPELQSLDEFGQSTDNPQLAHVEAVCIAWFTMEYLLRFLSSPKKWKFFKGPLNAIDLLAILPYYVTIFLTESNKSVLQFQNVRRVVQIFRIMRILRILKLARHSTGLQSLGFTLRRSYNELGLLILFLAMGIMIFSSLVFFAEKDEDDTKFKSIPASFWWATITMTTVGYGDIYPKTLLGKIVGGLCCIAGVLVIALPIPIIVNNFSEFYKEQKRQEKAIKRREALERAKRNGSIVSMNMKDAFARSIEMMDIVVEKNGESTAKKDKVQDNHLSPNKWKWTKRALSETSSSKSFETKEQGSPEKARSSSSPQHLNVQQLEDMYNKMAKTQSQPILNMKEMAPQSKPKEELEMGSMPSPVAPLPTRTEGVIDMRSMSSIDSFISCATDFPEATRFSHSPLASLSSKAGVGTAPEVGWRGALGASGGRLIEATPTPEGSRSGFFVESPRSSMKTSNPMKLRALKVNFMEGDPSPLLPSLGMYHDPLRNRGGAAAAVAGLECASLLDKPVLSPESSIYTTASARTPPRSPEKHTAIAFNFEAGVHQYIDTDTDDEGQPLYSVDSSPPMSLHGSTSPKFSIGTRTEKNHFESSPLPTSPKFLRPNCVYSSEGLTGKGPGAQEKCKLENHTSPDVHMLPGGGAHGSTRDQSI
Protocol: The purpose of this in vitro study was to evaluate the effects of HP184 on voltage-gated potassium channels in hamster HIT-T15 insulinoma cells using the whole-cell patch-clamping technique.
HIT-T15 cells (from Syrian Hamster pancreas) expressing voltage-gated potassium channels were grown in RPMI media supplemented with 10% fetal bovine serum and 1×penicillin/streptomycin in an atmosphere of 95% air/5% CO2. Cells used for patch-clamping were seeded on glass or plastic coverslips 12-36 hours before use. Currents were recorded at room temperature using the whole-cell configuration of the patch clamp technique with an Axopatch 200B amplifier (Axon Instruments, Foster City, Calif.). Briefly, electrodes (3-6 MΩ resistance) were fashioned from TW150F glass capillary tubes (World Precision Instruments Sarasota, Fla.) and filled with pipette solution (in mM: potassium aspartate 120; KCl 20; Na2ATP 4; HEPES 5; MgCl2 1; pH 7.2 adjusted with KOH). Currents were initiated by a 300-ms positive voltage pulse (20 mV) followed by a 50-ms negative pulse (−100 mV) and were recorded for off-line analyses. Once current from a cell perfused with control external solution (in mM: NaCl 130; KCl 5; sodium acetate 2.8; MgCl2 1; HEPES, 10; glucose 10; CaCl2 1 at pH7.4 adjusted with NaOH) was stabilized, the cell was perfused with external solution containing 1 μM HP184 (batch: R.C.4.53.3; molecular weight: 320.5; diluted from a 50 mM stock solution in DMSO prepared daily; the DMSO final concentration in all drug solutions was not more than 0.06%). Currents were continuously recorded until they reached steady-state condition. The same procedure was performed with increasing concentrations of HP184 (3, 10 and 30 μM, sequentially). For each concentration from each cell, the steady-state current at the end of the 20-mV activation pulse was measured in pico Ampere (pA).
The amplitude in pA for each concentration was compared with that for the control solution from the same cell and expressed as percent control (% control).

[3] = target: T2, cloned human Kv2.1 potassium channels (Homo sapiens, UniProt Q14721); assay: Whole-cell patch clamp, cloned human Kv2.1 channels expressed in U-373MG cells; assay type: cell-based; conditions: for Kv 2.1 Current (% Control), Average: average of cells; for Kv 2.1 Current (% Control), single cells: individual cells
T2 construct: expressed in transfected cells; host or cells: U-373MG (G418 selection)
T2 sequence (Q14721 1-858): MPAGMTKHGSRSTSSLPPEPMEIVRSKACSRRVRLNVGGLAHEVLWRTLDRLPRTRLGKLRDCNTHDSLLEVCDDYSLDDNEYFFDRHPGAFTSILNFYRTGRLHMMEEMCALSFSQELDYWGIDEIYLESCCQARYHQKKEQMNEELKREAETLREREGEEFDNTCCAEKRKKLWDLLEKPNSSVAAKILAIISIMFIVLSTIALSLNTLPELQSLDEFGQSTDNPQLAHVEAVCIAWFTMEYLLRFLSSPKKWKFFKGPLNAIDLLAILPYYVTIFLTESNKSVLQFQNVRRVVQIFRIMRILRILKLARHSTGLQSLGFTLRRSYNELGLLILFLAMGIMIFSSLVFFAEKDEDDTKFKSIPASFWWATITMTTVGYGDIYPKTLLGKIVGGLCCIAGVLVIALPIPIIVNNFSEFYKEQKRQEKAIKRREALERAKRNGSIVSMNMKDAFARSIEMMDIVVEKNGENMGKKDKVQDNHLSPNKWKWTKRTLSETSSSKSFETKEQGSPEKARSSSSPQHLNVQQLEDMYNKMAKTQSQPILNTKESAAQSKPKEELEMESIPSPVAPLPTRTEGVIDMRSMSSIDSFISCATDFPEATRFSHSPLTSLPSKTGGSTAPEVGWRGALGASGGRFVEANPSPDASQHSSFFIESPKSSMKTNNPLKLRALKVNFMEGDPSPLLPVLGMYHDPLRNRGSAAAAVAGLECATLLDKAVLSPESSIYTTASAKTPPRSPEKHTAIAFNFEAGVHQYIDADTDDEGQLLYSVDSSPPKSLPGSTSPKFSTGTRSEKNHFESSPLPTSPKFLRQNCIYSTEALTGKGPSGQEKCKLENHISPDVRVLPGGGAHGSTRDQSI
Protocol: The purpose of this in vitro study was to evaluate the effects of HP184 on cloned human Kv2.1 potassium channels expressed in U-373MG cells using the whole-cell patch-clamping technique.
U-373MG cells expressing the human Kv2.1 channels were grown in DMEM media supplemented with 10% fetal bovine serum, 1×penicillin/streptomycin and […], G418 (Invitrogen, Carlsbad, Calif.) in an atmosphere of 95% air/5% CO2. Cells used for patch-clamping were seeded on glass or plastic coverslips 12-36 hours before use. Kv2.1 Currents were recorded at room temperature using the whole-cell configuration of the patch clamp technique with an Axopatch 200B amplifier (Axon Instruments, Foster City, Calif.). Briefly, electrodes (2-4 MΩ resistance) were fashioned from TW150F glass capillary tubes (World Precision Instruments, Sarasota, Fla.) and filled with pipette solution (in mM: potassium aspartate 120; KCl 20; Na2ATP 4; HEPES 5; MgCl2 1; pH 7.2 adjusted with KOH). For dose-dependently, currents were initiated by a 300-ms positive voltage pulse (20 mV) followed by a 50-ms negative pulse (−100 mV) and were recorded for off-line analyses. Once current from a cell perfused with control external solution (in mM: NaCl 130; KCl 5; sodium acetate 2.8; MgCl2 1; HEPES, 10; glucose 10; CaCl2 1 at pH7.4 adjusted with NaOH) was stabilized, the cell was perfused with external solution containing 1 μM HP184 (batch: R.C.4.53.3; molecular weight: 320.5; diluted from a 50 mM stock solution in DMSO; the DMSO final concentration in all drug solutions was not more than 0.06%). Currents were continuously recorded until they reached steady-state condition. The same procedure was performed with increasing concentrations of HP184 (3, 10 and 30 μM, sequentially). For each concentration from each cell, the steady-state current at the end of the 20-mV activation pulse was measured in pico Ampere (pA). The amplitude in pA for each concentration was compared with that for the control solution from the same cell and expressed as percent control (% control).

| Voltage-Gated Potassium Current (% Control), Average ([2]; 1 μM) | Voltage-Gated Potassium Current (% Control), Average ([2]; 3 μM) | Voltage-Gated Potassium Current (% Control), Average ([2]; 10 μM) | Voltage-Gated Potassium Current (% Control), Average ([2]; 30 μM) | IC50 ([2]; HIT-T15 cells, steady-state current at end of 20-mV pulse, read-out: IC50, block of voltage-gated potassium currents) | Kv 2.1 Current (% Control), Average ([3]; 1 μM) | Kv 2.1 Current (% Control), Average ([3]; 3 μM) | Kv 2.1 Current (% Control), Average ([3]; 10 μM) | Kv 2.1 Current (% Control), Average ([3]; 30 μM) | IC50 ([3]; U-373MG cells expressing human Kv2.1, read-out: IC50, block of Kv2.1 current) | Structure (SMILES) | Release of norepinephrine, acetylcholine and serotonin from rat brain slices (in words) [1] | Voltage-Gated Potassium Current (% Control), single cells ([2]; 1 μM) | Voltage-Gated Potassium Current (% Control), single cells ([2]; 3 μM) | Voltage-Gated Potassium Current (% Control), single cells ([2]; 10 μM) | Voltage-Gated Potassium Current (% Control), single cells ([2]; 30 μM) | Kv 2.1 Current (% Control), single cells ([3]; 1 μM) | Kv 2.1 Current (% Control), single cells ([3]; 3 μM) | Kv 2.1 Current (% Control), single cells ([3]; 10 μM) | Kv 2.1 Current (% Control), single cells ([3]; 30 μM) |
| --- | --- | --- | --- | --- | --- | --- | --- | --- | --- | --- | --- | --- | --- | --- | --- | --- | --- | --- | --- |
|  |  |  |  |  |  |  |  |  |  | Nc1ccncc1 [4-AP, 4-aminopyridine] | dependent on added calcium |  |  |  |  |  |  |  |  |
| 85.7 % Control | 62.5 % Control | 17.2 % Control | 1.4 % Control | 3.9 µM | 91.7 % Control | 72.3 % Control | 28.3 % Control | 10.4 % Control | 5.6 µM | CCCN(c1ccncc1F)n1cc(C)c2ccccc21 [HP184, N-(3-fluoro-4-pyridinyl)-N-propyl-3-methyl-1H-indole-1-amine] |  | 95.1 % Control and 84.7 % Control and 80.9 % Control and 85.4 % Control and 82.6 % Control | 86.4 % Control and 61.5 % Control and 46.4 % Control and 58.8 % Control and 59.3 % Control | 34.0 % Control and 9.1 % Control and 12.6 % Control (2×) and 17.8 % Control | 2.6 % Control and 0.8 % Control and 0.9 % Control and 1.2 % Control | 98 % Control and 91.0 % Control and 89.2 % Control and 91.6 % Control and 95.0 % Control and 90.5 % Control (2×) and 94.5 % Control and 83.6 % Control and 91.8 % Control and 95.5 % Control | 93.0 % Control and 63.1 % Control and 69.6 % Control and 62.9 % Control and 68.5 % Control and 70.8 % Control and 87.5 % Control and 86.1 % Control and 88.5 % Control and 79.9 % Control and 89.7 % Control | 58.2 % Control and 19.9 % Control and 37.7 % Control and 24.4 % Control and 17.1 % Control and 38.5 % Control and 43.8 % Control and 13.1 % Control and 19.1 % Control and 12.5 % Control | 22.1 % Control and 13.7 % Control (2×) and 16.2 % Control and 6.7 % Control and 1.4 % Control and 12.8 % Control and 4.8 % Control (2×) and 8.7 % Control |
